Patent US8785501B2 (Duquesne University of the Holy Spirit, priority 2009, dated 2014)

System: mammary estrogen-regulated genes (lactoferrin and progesterone receptor)
Test: Expression of estrogen-regulated genes in mammary tissue of ovariectomized FVB/n mice
Assay type: in vivo, mouse
Settings: FVB/n OVX mice, n=4, data not shown; versus control (vehicle) and melatonin alone
Source text: Previous studies with melatonin or tamoxifen alone were done in MMTV/neu mice. MMTV/neu mice spontaneously develop HER2/neu mammary cancer beginning at 5 months of […] and have a maximal incidence of >90% after 14 months of age. In this mouse model, tamoxifen and melatonin alone can influence mammary tumor development, growth and/or metastatic progression.

SMILES: CC/C(=C(\c1ccccc1)c1ccc(OCCN(C)C)cc1)c1ccccc1 [tamoxifen]
- progesterone receptor (PR) RNA levels in mammary tissue: significantly different than the control
